What all share (assay type): cell-based
Common to all, as to conditions: mean ± SD from three independent experiments

For assay [1], the system named is MGC-803 human gastric cancer cell line. In words: MTT cytotoxicity assay, MGC-803. The procedure:
(§1) The in vitro antiproliferative activity of the DHAA derivatives 3a–o and 4a–o against four human cancer cell lines (MGC-803 human gastric cancer cell line, CNE-2 human nasopharyngeal carcinoma cell line, SK-OV-3 human ovarian carcinoma cell line, NCI-H460 human lung cancer cell line) and the human normal liver cell line LO2 were evaluated by MTT (methyl thiazolytetrazolium) assay and compared with the parent compound DHAA and the positive control cisplatin in each panel.
(§2) The cytotoxicity of the compounds was evaluated against NCI-H460, MGC-803, SK-OV-3, CNE-2 and LO2 using an MTT assay. Cells were grown on 96-well micro-plates at a density of 4 × 10^3 cells per well in DMEM (dulbecco’s modified eagle medium) medium with 10% FBS (fetal bovine serum). The plates were incubated at 37 °C with 5% CO2. The cells were then exposed to different concentrations of target compounds and cisplatin and incubated for another 48 h. Control wells were formed by culture media with the maximum concentration of DMSO used in each assay (1‰). The cells were stained with 20 µL of MTT in an incubator for about 4 h. The medium was thrown away and replaced by […] DMSO. The absorbance (OD) value was read at 490 nm on an enzyme labeling instrument. Each experiment was repeated at least three times to obtain the mean values.

Assay [2] deals with CNE-2 human nasopharyngeal carcinoma cell line. In words: MTT cytotoxicity assay, CNE-2. The procedure: as §1, §2
Background: Formazan colour is commonly taken as a measure of viable cells.

The subject of assay [3] is SK-OV-3 human ovarian carcinoma cell line. In words: MTT cytotoxicity assay, SK-OV-3. How it is done:
as §1, §2

In assay [4] the test system is NCI-H460 human lung cancer cell line. In words: MTT cytotoxicity assay, NCI-H460. The procedure:
as §1, §2

For assay [5], the system named is human normal liver cell line LO2. In words: MTT cytotoxicity assay, normal LO2 cells. How it is done:
as §1, §2

The structures appear in SMILES notation.

By IC50 is commonly meant the midpoint of a concentration-inhibition curve. Lower therefore signals inhibition by little substance. Regarding `CC(C)c1ccc2c(c1)CCC1[C@](C)(C(=O)OCC3CN(c4ccccc4F)C(=O)O3)CCC[C@]21C` (stereo partly drawn) [Compound 4h, (1R,4aS)-(3-(2-Fluorophenyl)-2-Oxooxazolidin-5-yl)Methyl-7-Isopropyl-1,4a-Dimethyl-1,2,3,4,4a, 9,10,10a-Octahydrophenanthrene-1-Carboxylate], the IC50 is 49.9 ± 1.14 µM in assay [1] (Homo sapiens, MGC-803, 48 h); > 100 µM in assay [2] (Homo sapiens, CNE-2, 48 h); > 100 µM in assay [3] (Homo sapiens, SK-OV-3, 48 h); > 100 µM in assay [4] (Homo sapiens, NCI-H460, 48 h); > 100 µM in assay [5] (Homo sapiens, L02, 48 h).
Consider `N.N.[Cl][Pt][Cl]` [cisplatin, reference compound], for which the IC50 in assay [1] (48 h) turned out to be 14.9 ± 1.78 µM; in assay [2] (48 h), 21 ± 2.25 µM; in assay [3] (48 h), 10.4 ± 0.25 µM; in assay [4] (48 h), 24.1 ± 1.74 µM; in assay [5] (48 h) it was 36.4 ± 0.79 µM.
Take `COc1ccc(NCC(O)COC(=O)[C@]2(C)CCC[C@]3(C)c4ccc(C(C)C)cc4CCC23)cc1` (stereo partly drawn) [Compound 3g, (1R,4aS)-2-Hydroxy-3-(4-Methoxyphenylamino)Propyl-7-Isopropyl-1,4a-Dimethyl-1,2,3,4,4a,9, 10,10a-Octahydrophenanthrene-1-Carboxylate]: the IC50 was 51.7 ± 1.85 µM in assay [1] (Homo sapiens, MGC-803, 48 h); > 100 µM in assay [2] (Homo sapiens, CNE-2, 48 h); > 100 µM in assay [3] (Homo sapiens, SK-OV-3, 48 h); > 100 µM in assay [4] (Homo sapiens, NCI-H460, 48 h); > 100 µM in assay [5] (Homo sapiens, L02, 48 h).
In the case of `CC(C)c1ccc2c(c1)CCC1[C@](C)(C(=O)OCC3CN(c4ccccc4)C(=O)O3)CCC[C@]21C` (stereo partly drawn) [Compound 4a, (1R,4aS)-(2-Oxo-3-Phenyloxazolidin-5-yl)Methyl-7-Isopropyl-1,4a-Dimethyl-1,2,3,4,4a,9,10,10a-Octahydrophenanthrene-1-Carboxylate], the IC50 in assay [1] (Homo sapiens, MGC-803, 48 h) is 11 ± 4.41 µM; in assay [2] (Homo sapiens, CNE-2, 48 h), 9.69 ± 0.13 µM; in assay [3] (Homo sapiens, SK-OV-3, 48 h), > 100 µM; in assay [4] (Homo sapiens, NCI-H460, 48 h), 4.83 ± 0.77 µM; in assay [5] (Homo sapiens, L02, 48 h), > 100 µM.
`Cc1ccc(NCC(O)COC(=O)[C@]2(C)CCC[C@]3(C)c4ccc(C(C)C)cc4CCC23)cc1` (stereo partly drawn) [Compound 3d, (1R,4aS)-2-Hydroxy-3-(4-Methylphenylamino)Propyl-7-Isopropyl-1,4a-Dimethyl-1,2,3,4,4a,9,10, 10a-Octahydrophenanthrene-1-Carboxylate]: the half-maximal inhibitory concentration (IC50) in assay [1] (Homo sapiens, MGC-803, 48 h) is 21.8 ± 2.66 µM; in assay [2] (Homo sapiens, CNE-2, 48 h), 44.1 ± 2.89 µM; in assay [3] (Homo sapiens, SK-OV-3, 48 h), 29.9 ± 0.8 µM; in assay [4] (Homo sapiens, NCI-H460, 48 h) it was 44.8 ± 5.26 µM; in assay [5] (Homo sapiens, L02, 48 h), > 100 µM.
The corresponding values for `CC(C)c1ccc2c(c1)CCC1[C@](C)(C(=O)OCC(O)CNc3cccc(F)c3)CCC[C@]21C` (stereo partly drawn) [Compound 3i, (1R,4aS)-2-Hydroxy-3-(3-Fluorophenylamino)Propyl-7-Isopropyl-1,4a-Dimethyl-1,2,3,4,4a,9,10, 10a-Octahydrophenanthrene-1-Carboxylatev] are > 100 µM, > 100 µM, > 100 µM, > 100 µM and > 100 µM.
On the same counts, the results for `CC(C)c1ccc2c(c1)CCC1[C@](C)(C(=O)OCC(O)CNc3cccc(Cl)c3)CCC[C@]21C` (stereo partly drawn) [Compound 3k, (1R,4aS)-2-Hydroxy-3-(3-Chlorophenylamino)Propyl-7-Isopropyl-1,4a-Dimethyl-1,2,3,4,4a,9,10, 10a-Octahydrophenanthrene-1-Carboxylate] are 13.1 ± 2.66 µM, 18.2 ± 4.06 µM, 25.1 ± 4.8 µM, 18.1 ± 2.33 µM and 35.3 ± 0.57 µM.
On the same counts, the results for `CC(C)c1ccc2c(c1)CCC1[C@](C)(C(=O)OCC3CN(c4cccc(F)c4)C(=O)O3)CCC[C@]21C` (stereo partly drawn) [Compound 4i, (1R,4aS)-(3-(3-Fluorophenyl)-2-Oxooxazolidin-5-yl)Methyl-7-Isopropyl-1,4a-Dimethyl-1,2,3,4,4a, 9,10,10a-Octahydrophenanthrene-1-Carboxylate] are 11.5 ± 0.25 µM, 28 ± 3.95 µM, 9.86 ± 4.3 µM, 25.1 ± 4.5 µM and > 100 µM.
Consider `CC(C)c1ccc2c(c1)CCC1[C@](C)(C(=O)OCC3CN(c4cccc(Cl)c4)C(=O)O3)CCC[C@]21C` (stereo partly drawn) [Compound 4k, (1R,4aS)-(3-(3-Chlorophenyl)-2-Oxooxazolidin-5-yl)Methyl-7-Isopropyl-1,4a-Dimethyl-1,2,3,4,4a,9,10,10a-Octahydrophenanthrene-1-Carboxylate], for which the IC50 is 7.43 ± 1.42 µM in assay [1] (Homo sapiens, MGC-803, 48 h); 31.2 ± 2.5 µM in assay [2] (Homo sapiens, CNE-2, 48 h); 10.3 ± 5.46 µM in assay [3] (Homo sapiens, SK-OV-3, 48 h); 23 ± 2.62 µM in assay [4] (Homo sapiens, NCI-H460, 48 h); 37.2 ± 3.14 µM in assay [5] (Homo sapiens, L02, 48 h).
On the same counts, the results for `CC(C)c1ccc2c(c1)CCC1[C@](C)(C(=O)OCC3CN(c4cccc(Br)c4)C(=O)O3)CCC[C@]21C` (stereo partly drawn) [Compound 4m, (1R,4aS)-(3-(3-Bromophenyl)-2-Oxooxazolidin-5-yl)Methyl-7-Isopropyl-1,4a-Dimethyl-1,2,3,4,4a,9,10,10a-Octahydrophenanthrene-1-Carboxylate] are 9.8 ± 2.37 µM, > 100 µM, > 100 µM, 25.1 ± 1.39 µM and 34.2 ± 2.88 µM.
On the same counts, the results for `COc1ccccc1NCC(O)COC(=O)[C@]1(C)CCC[C@]2(C)c3ccc(C(C)C)cc3CCC12` (stereo partly drawn) [Compound 3e, (1R,4aS)-2-Hydroxy-3-(2-Methoxyphenylamino)Propyl-7-Isopropyl-1,4a-Dimethyl-1,2,3,4,4a,9, 10,10a-Octahydrophenanthrene-1-Carboxylate] are 28.5 ± 1.35 µM, 27.4 ± 0.51 µM, 19.5 ± 2.23 µM, 26.1 ± 1.92 µM and 32.3 ± 1.56 µM.
On the same counts, the results for `COc1cccc(N2CC(COC(=O)[C@]3(C)CCC[C@]4(C)c5ccc(C(C)C)cc5CCC34)OC2=O)c1` (stereo partly drawn) [Compound 4f, (1R,4aS)-(3-(3-Methoxyphenyl)-2-Oxooxazolidin-5-yl)Methyl-7-Isopropyl-1,4a-Dimethyl-1,2,3,4,4a,9,10,10a-Octahydrophenanthrene-1-Carboxylate] are 19.7 ± 2.8 µM, 23.5 ± 1.2 µM, 43 ± 1.05 µM, 17.2 ± 1.38 µM and > 100 µM.
For the compound `CC(C)c1ccc2c(c1)CC[C@H]1[C@](C)(C(=O)O)CCC[C@]21C` [DHA, Dehydroabietic acid], the IC50 in assay [1] (Homo sapiens, MGC-803, 48 h) was 29.8 ± 2.06 µM; in assay [2] (Homo sapiens, CNE-2, 48 h) it was 62.6 ± 1.6 µM; in assay [3] (Homo sapiens, SK-OV-3, 48 h) it was > 100 µM; in assay [4] (Homo sapiens, NCI-H460, 48 h), > 100 µM; in assay [5] (Homo sapiens, L02, 48 h), > 100 µM.
On to `Cc1ccccc1N1CC(COC(=O)[C@]2(C)CCC[C@]3(C)c4ccc(C(C)C)cc4CCC23)OC1=O` (stereo partly drawn) [Compound 4b, (1R,4aS)-(3-(2-Methylphenyl)-2-Oxooxazolidin-5-yl)Methyl-7-Isopropyl-1,4a-Dimethyl-1,2,3,4,4a,9,10,10a-Octahydrophenanthrene-1-Carboxylate], for which the half-maximal inhibitory concentration (IC50) in assay [1] (Homo sapiens, MGC-803, 48 h) was 25 ± 5.02 µM; in assay [2] (Homo sapiens, CNE-2, 48 h) it was > 100 µM; in assay [3] (Homo sapiens, SK-OV-3, 48 h) it was > 100 µM; in assay [4] (Homo sapiens, NCI-H460, 48 h), 27.7 ± 5.03 µM; in assay [5] (Homo sapiens, L02, 48 h), > 100 µM.
Regarding `COc1cccc(NCC(O)COC(=O)[C@]2(C)CCC[C@]3(C)c4ccc(C(C)C)cc4CCC23)c1` (stereo partly drawn) [Compound 3f, (1R,4aS)-2-Hydroxy-3-(3-Methoxyphenylamino)Propyl-7-Isopropyl-1,4a-Dimethyl-1,2,3,4,4a,9, 10,10a-Octahydrophenanthrene-1-Carboxylate], the concentration for half-maximal inhibition (IC50) in assay [1] (Homo sapiens, MGC-803, 48 h) was 18.4 ± 1.45 µM; in assay [2] (Homo sapiens, CNE-2, 48 h), 17.4 ± 4.32 µM; in assay [3] (Homo sapiens, SK-OV-3, 48 h) it was 18.01 ± 0.09 µM; in assay [4] (Homo sapiens, NCI-H460, 48 h), 21.9 ± 8.61 µM; in assay [5] (Homo sapiens, L02, 48 h), > 100 µM.
Turning to `CC(C)c1ccc2c(c1)CCC1[C@](C)(C(=O)OCC(O)CNc3ccccc3)CCC[C@]21C` (stereo partly drawn) [Compound 3a, (1R,4aS)-2-Hydroxy-3-(Phenylamino)Propyl-7-Isopropyl-1,4a-Dimethyl-1,2,3,4,4a,9,10,10a-Octahydrophenanthrene-1-Carboxylate], the IC50 was 7.1 ± 1.51 µM in assay [1] (Homo sapiens, MGC-803, 48 h); 27.87 ± 0.25 µM in assay [2] (Homo sapiens, CNE-2, 48 h); 15.1 ± 0.57 µM in assay [3] (Homo sapiens, SK-OV-3, 48 h); 18.6 ± 0.97 µM in assay [4] (Homo sapiens, NCI-H460, 48 h); > 100 µM in assay [5] (Homo sapiens, L02, 48 h).
The corresponding values for `CC(C)c1ccc2c(c1)CCC1[C@](C)(C(=O)OCC3CN(c4ccc(Br)cc4)C(=O)O3)CCC[C@]21C` (stereo partly drawn) [Compound 4n, (1R,4aS)-(3-(4-Bromophenyl)-2-Oxooxazolidin-5-yl)Methyl-7-Isopropyl-1,4a-Dimethyl-1,2,3,4,4a,9,10,10a-Octahydrophenanthrene-1-Carboxylate] are 5.34 ± 3.45 µM, 42.5 ± 5.68 µM, > 100 µM, 30.2 ± 2.66 µM and > 100 µM.
The corresponding values for `Cc1ccccc1NCC(O)COC(=O)[C@]1(C)CCC[C@]2(C)c3ccc(C(C)C)cc3CCC12` (stereo partly drawn) [Compound 3b, (1R,4aS)-2-Hydroxy-3-(2-Methylphenylamino)Propyl-7-Isopropyl-1,4a-Dimethyl-1,2,3,4,4a,9,10, 10a-Octahydrophenanthrene-1-Carboxylate] are 22.6 ± 2.71 µM, > 100 µM, > 100 µM, > 100 µM and > 100 µM.

Source of the values: publication PMC6213879, “Synthesis and Biological Evaluation of Novel Dehydroabietic Acid-Oxazolidinone Hybrids for Antitumor Properties” (International Journal of Molecular Sciences, 2018).
